Experimental data from ChEMBL document CHEMBL1133140, “Computer-aided design, synthesis and biological assay of p-methylsulfonamido phenylethylamine analogues” (2000).
Activity calls are given as the source filed them. No cut-off for these calls is given here.

Assays:
[1] = Negative log of concentration (-logC)for delaying functional refractory period 10 ms in animal atrium; design: species or system Cardiac atrium
[2] = Tested for its effective concentration for delaying functional refractory period 10 ms in animal atrium; design: species or system Cardiac atrium
[3] = Tested for its maximal percent change of force of constriction in uM; format: functional
[4] = Tested for its maximal percent change of delaying functional refractory period in uM
[5] = Tested for its maximal percent change of heart rate in uM; format: functional
[6] = The compound was tested for its maximal percent change of force of constriction in uM; no effect; format: functional
[7] = The compound was tested for its maximal percent change of delaying functional refractory period in uM; no effect

Structure (SMILES): CS(=O)(=O)Nc1ccc(CCN(Cc2ccccc2)Cc2ccc(Cl)cc2)cc1
- EA [1]: 5.98
- Effective concentration [2]: 1.05 µM

Structure (SMILES): CN(CCOc1ccc(NS(C)(=O)=O)cc1)CCc1ccc(NS(C)(=O)=O)cc1 [DOFETILIDE]
- EA [1]: 7.92
- Effective concentration [2]: 0.012 µM
- Max delta FC [3]: 17.1%
- Max delta FRP [4]: 24%
- Max delta HR [5]: -30.03%

Structure (SMILES): CN(CCc1ccc(NS(C)(=O)=O)cc1)Cc1ccccc1
- EA [1]: 6.34
- Effective concentration [2]: 0.372 µM

Structure (SMILES): Cc1ccc(CN(C)CCc2ccc(N(S(C)(=O)=O)S(C)(=O)=O)cc2)cc1
- EA [1]: 6.02
- Effective concentration [2]: 0.953 µM

Structure (SMILES): CS(=O)(=O)Nc1ccc(CCN(Cc2ccccc2)Cc2ccccc2)cc1
- EA [1]: 6.57
- Effective concentration [2]: 0.27 µM

Structure (SMILES): Cc1ccc(CN(CCc2ccc(N(S(C)(=O)=O)S(C)(=O)=O)cc2)Cc2ccccc2)cc1
- EA [1]: 6.21
- Effective concentration [2]: 0.62 µM

Structure (SMILES): CN(CCOc1ccccc1)CCc1ccc(NS(C)(=O)=O)cc1
- Max delta FC [3]: 20.2%
- Max delta FRP [4]: 20.2%
- Max delta HR [5]: -28.51%

Structure (SMILES): CN(CCc1ccc(NS(C)(=O)=O)cc1)Cc1ccc2c(c1)OCO2
- EA [1]: 6.15
- Effective concentration [2]: 0.89 µM

Structure (SMILES): CS(=O)(=O)Nc1ccc(CCN(CCOc2ccc(NS(C)(=O)=O)cc2)Cc2ccc(Cl)cc2)cc1
- EA [1]: 7.44
- Effective concentration [2]: 0.037 µM

Structure (SMILES): CS(=O)(=O)N(c1ccc(CCN(Cc2ccccc2)Cc2ccc3c(c2)OCO3)cc1)S(C)(=O)=O
- EA [1]: 6.41
- Effective concentration [2]: 0.38 µM

Structure (SMILES): CC(=O)N(CCOc1ccc(NS(C)(=O)=O)cc1)CCc1ccc(NS(C)(=O)=O)cc1
- EA [1]: 7.67
- Effective concentration [2]: 0.021 µM

Structure (SMILES): CS(=O)(=O)Nc1ccc(CCN(CCOc2ccccc2)C(=O)c2ccccc2)cc1
- Max delta FC [3]: 33.3%
- Max delta FRP [4]: 5.33%
- Max delta HR [5]: -20%

Structure (SMILES): CC(=O)N(CCOc1ccccc1)CCc1ccc(N(S(C)(=O)=O)S(C)(=O)=O)cc1
- Max delta FC [6]: inactive
- Max delta FRP [7]: inactive
- Max delta HR [5]: -20.51%

Structure (SMILES): C=CCN(CCOc1ccccc1)CCc1ccc(N(S(C)(=O)=O)S(C)(=O)=O)cc1
- Max delta FC [3]: 16.7%
- Max delta FRP [7]: inactive
- Max delta HR [5]: -8.33%

Structure (SMILES): CN(CCc1ccc(NS(C)(=O)=O)cc1)C1CCCCC1
- EA [1]: 5.32
- Effective concentration [2]: 4.789 µM

Structure (SMILES): COc1ccc(CN(C)CCc2ccc(N(S(C)(=O)=O)S(C)(=O)=O)cc2)cc1
- EA [1]: 5.93
- Effective concentration [2]: 1.17 µM

Structure (SMILES): CS(=O)(=O)Nc1ccc(CCNCCOc2ccc(NS(C)(=O)=O)cc2)cc1 [N-DESMETHYLDOFETILIDE]
- EA [1]: 7.63
- Effective concentration [2]: 0.023 µM

Structure (SMILES): CC(=O)N(CCOc1ccccc1)CCc1ccc(NS(C)(=O)=O)cc1
- Max delta FC [3]: -37.9%
- Max delta FRP [4]: 58.4%
- Max delta HR [5]: -46.17%

Structure (SMILES): CS(=O)(=O)Nc1ccc(CCN(CCOc2ccccc2)Cc2ccccc2)cc1
- Max delta FC [3]: 25%
- Max delta FRP [7]: inactive
- Max delta HR [5]: -31.8%

Structure (SMILES): C=CCN(CCOc1ccccc1)CCc1ccc(NS(C)(=O)=O)cc1
- Max delta FC [3]: 16.7%
- Max delta FRP [4]: 9.77%
- Max delta HR [5]: -15.18%

Structure (SMILES): CN(CCOc1ccccc1)CCc1ccc(N(S(C)(=O)=O)S(C)(=O)=O)cc1
- Max delta FC [6]: inactive
- Max delta FRP [4]: 12%
- Max delta HR [5]: -20.69%

Structure (SMILES): COc1ccccc1CN(CCc1ccc(NS(C)(=O)=O)cc1)Cc1ccccc1
- EA [1]: 6.85
- Effective concentration [2]: 0.141 µM

Structure (SMILES): CS(=O)(=O)Nc1ccc(CCN(CCOc2ccc(NS(C)(=O)=O)cc2)Cc2ccccc2)cc1
- EA [1]: 7.8
- Effective concentration [2]: 0.016 µM

Structure (SMILES): CS(=O)(=O)N(c1ccc(CCN(CCOc2ccccc2)Cc2ccccc2)cc1)S(C)(=O)=O
- Max delta FC [3]: 25%
- Max delta FRP [7]: inactive
- Max delta HR [5]: -17.86%

Structure (SMILES): CN(CCc1ccc(NS(C)(=O)=O)cc1)Cc1ccc(Cl)cc1
- EA [1]: 5.65
- Effective concentration [2]: 2.239 µM

Structure (SMILES): COc1ccc(CN(CCc2ccc(N(S(C)(=O)=O)S(C)(=O)=O)cc2)Cc2ccccc2)cc1
- EA [1]: 6.1
- Effective concentration [2]: 0.79 µM
